“Also recorded” adds a separate entry of the source.
Assays:
[1] = tested on: LY1 and LY7 (GCB) cell lines; test: DLBCL cell viability, resazurin assay, GCB subtype; format: cell-based; conditions: LY1 and LY7, 4 days, refreshed daily; DI 125-250 μM
STAT3 = STAT3 activation in IL17A-stimulated HaCat cells (western blot); format: cell-based, human; conditions: DI 12 h
[2] = tested on: imiquimod-induced psoriasis-like skin inflammation; test: IMQ-induced psoriasis mouse model; format: in vivo; conditions: DI daily i.p.
Description: RNA from cultured cells was isolated using a Total RNA I kit (OMEGA). RNA from mouse ear skin was extracted using RNAeasy mini kit (Qiagen) after tissue disruption with sterile zirconium beads on a MagNA Lyser (Roche). Isolated RNA was reverse transcribed using AffinityScript Multi-Temp reverse transcriptase (Agilent Technologies) according to the manufacturer's protocol. Reactions were performed in 96-well plates using a SYBR Green PCR Master mix (Thermo Fisher Scientific) using a LightCycler® 96 or LightCycler® 480 (Roche Diagnostics). All assays were performed at least in duplicates, and reaction mixtures in 20 μL volumes (96-plate) or 10 μL volumes (384-plate) were processed under the following cycling conditions: initial 10 min denaturation at 95° C., followed by 40 cycles at 95° C. for 10 s, 60° C. for 1 min. Threshold cycle (CT) values for each sample were determined by automated threshold analysis. Expression levels of all mRNAs were normalized to reference gene Actb in BMDMs or to Rpl19 in mouse keratinocytes and tissue samples; to ACTB in human blood monocytes or RPLP0 in human keratinocytes. […] Average ear thickness in each sample was quantified from images obtained at the identical settings using ImageJ. Thickness at 5 equidistant places in each image was quantified and mean of these values was used to represent results in each mouse.

Nfkbiz 3′UTR = Nfkbiz 3′UTR GFP reporter in BV2 cells (flow cytometry); format: cell-based, mouse; conditions: DI 250 μM 12 h, LPS 1 h
Description: Mouse Nfkbiz 3′UTR Lenti-reporter-GFP (#MT-m64048) vector or pLenti-UTR-GFR-Blank vector (#m014) were purchased from Applied Biological Materials. For lentiviral production transfection mixture of 1.5-mL of Opti-MEM medium (Invitrogen), 18 μg of psPAX2 (gift from Didier Trono, Addgene plasmid #12260), 13 μg of pCMV-V-SVG (gift from Bob Weinberg, Addgene plasmid #8454), 20 μg of lentiviral construct, and 105 μL of polyethylenimine (1 mg/mL; 25 kDa; linear form; Polysciences). The mixture was incubated at room temperature for 20 min and added to HEK-293T cells (ATCC) cultured in DMEM supplemented with 10% FBS, 2 mM L-glutamine and 100 U/mL penicillin-streptomycin in 150-cm2 tissue culture flask. 48 h later, virus-containing medium was filtered through […] pore-size cellulose acetate filters and used directly for BV2 transduction in the presence of polybrene (8 μg/mL, Millipore). […]
For ROS measurements, cells were treated with DI (250 μM), loaded with 10 μM CM-H2DCFDA (Invitrogen) at RT for 30 min in Hank's balanced salt solution (HBSS). After incubation, cell were rinsed with warm HBSS, harvested and directly analyzed. […] For Nfkbiz 3′UTR reporter analysis GFP signal was determined in live cells. […] Cells were acquired on CantoII or LSRII flow cytometers (Becton Dickinson), and data were analyzed with FlowJo v.9.5.2 software (Tree Star). […]

C=C(CC(=O)OC)C(=O)OC [DI, dimethyl itaconate]
growth / toxicity, GCB DLBCL [1]: not GCB cells
STAT3 activation (STAT3): effective to inhibit STAT3 activation
IκBζ target gene expression (Defb4, S100a9, S100a7a, Lcn2) in ear skin ([2]; IMQ 7 days, qPCR): markedly reduced
psoriatic skin pathology ([2]; IMQ topically on ears 7 days): significant improvement of the psoriatic pathology; also recorded: no detectable skin changes
Nfkbiz 3′UTR reporter GFP expression (Nfkbiz 3′UTR): did not affect expression of reporter gene GFP; also recorded: not due to regulation of Nfkbiz 3′UTR

— patent US20200375929A1, “METHODS AND COMPOSITIONS FOR THE TREATMENT OF DISEASES ASSOCIATED WITH CANCER, INFLAMMATION, OR IMMUNE RESPONSE” (Washington University, priority 2017, published 2020)
